This is an account of results in PubChem BioAssay (NCI).

Some test systems named below: ACHN renal; HCT-116 colon; HS 578T breast; KM12 colon; MCF7 breast; RXF 393 renal; SF-295 CNS; TK-10 renal; UACC-257 melanoma; SR leukemia.
What all share (assay): NCI tumour cell line growth inhibition, 48 h

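Exposure lasted 48 hours, with cells grown in 96-well plates and compounds tested at five concentrations. GI50: concentration for 50% inhibition of growth. Definition used: TGI = concentration required for complete inhibition of growth.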

On to `CC1CN(S(=O)(=O)c2oc(-c3ccc(Cl)cc3)nc2C#N)CC(C)O1` (stereo not given), for which the GI50 in the experiment with ACHN renal was 1.74 µM; in the experiment on HCT-116 colon it was 1.59 µM; in the experiment with HS 578T breast, 3.92 µM; in the experiment with KM12 colon it was 10.3 µM; in the experiment with MCF7 breast it was 1.59 µM; in the experiment on RXF 393 renal, 1.69 µM. Besides, the GI50 in the experiment with SF-295 CNS is 13.8 µM; in the experiment with TK-10 renal, 1.75 µM; with UACC-257 melanoma, 2.15 µM. The TGI was found to be 3.13 µM in the experiment with ACHN renal; 3.13 µM in the experiment on HCT-116 colon; 27.2 µM in the experiment with HS 578T breast; 23.5 µM in the experiment on KM12 colon; 3.94 µM with MCF7 breast; 3.15 µM in the experiment on RXF 393 renal. The TGI in the experiment with SF-295 CNS was determined as 27.2 µM; in the experiment on TK-10 renal it was 3.26 µM; in the experiment with UACC-257 melanoma it was 6.34 µM.
As for `CC[C@@]1(OC(=O)CN)C(=O)OCc2c1cc1n(c2=O)Cc2c-1nc1cc3c(cc1c2CCl)OCO3`, the GI50 in the experiment with ACHN renal was less than 0.01 µM; in the experiment on HCT-116 colon, less than 0.01 µM; in the experiment on HS 578T breast, 0.762 µM; in the experiment on KM12 colon, 0.12 µM; with MCF7 breast, less than 0.01 µM; in the experiment on SF-295 CNS, less than 0.01 µM. The figures for the GI50 in the experiment with SR leukemia, with TK-10 renal and in the experiment on UACC-257 melanoma were less than 0.01 µM, 0.947 µM and 1.02 µM, respectively. Moreover, the TGI in the experiment on ACHN renal is 0.244 µM; in the experiment with HCT-116 colon it was greater than 100 µM; in the experiment on HS 578T breast, 5.5 µM; in the experiment on KM12 colon, 0.39 µM; with MCF7 breast it was 12.6 µM; in the experiment with SF-295 CNS it was 11.2 µM. Moreover, the TGI in the experiment with SR leukemia is greater than 100 µM; with TK-10 renal it was 7.62 µM; in the experiment with UACC-257 melanoma, 15.1 µM.
For the compound `CCN1CCN(c2cc(C)nc(N(CCCNc3ccnc4cc(Cl)ccc34)Cc3ccc4c(c3)OCO4)n2)CC1`, the GI50 in the experiment on ACHN renal was 3.16 µM; in the experiment with HCT-116 colon, 2.45 µM; with HS 578T breast, 1.93 µM; in the experiment with KM12 colon, 4.14 µM; in the experiment with MCF7 breast, 2.88 µM; in the experiment on RXF 393 renal it was 1.52 µM. Further, the GI50 was 1.91 µM with SF-295 CNS, 1.84 µM in the experiment with TK-10 renal and 1.72 µM in the experiment with UACC-257 melanoma. The TGI was 10.6 µM in the experiment with ACHN renal; 13.6 µM in the experiment on HCT-116 colon; 5.26 µM in the experiment with HS 578T breast; greater than 100 µM in the experiment with KM12 colon; 21.5 µM in the experiment on MCF7 breast; 3.38 µM with RXF 393 renal. The TGI with SF-295 CNS came out at 3.82 µM; in the experiment with TK-10 renal it was 3.87 µM; with UACC-257 melanoma it was 3.23 µM.
For the compound `COc1cccc(CN(C)c2ccc(CO)c(Cl)c2)c1`, the GI50 is 42.1 µM in the experiment on ACHN renal; 0.243 µM with HCT-116 colon; 43.6 µM with HS 578T breast; 29.8 µM in the experiment with KM12 colon; 0.504 µM with MCF7 breast; 11.2 µM in the experiment on RXF 393 renal. The figures for the GI50 in the experiment on SF-295 CNS, in the experiment on SR leukemia and in the experiment on UACC-257 melanoma were 3.71 µM, 41.8 µM and 0.216 µM, respectively. Besides, the TGI in the experiment on ACHN renal is greater than 100 µM; with HCT-116 colon, 14.1 µM; with HS 578T breast, greater than 100 µM; in the experiment on KM12 colon, greater than 100 µM; in the experiment with MCF7 breast it was greater than 43.7 µM; in the experiment with RXF 393 renal, greater than 62.2 µM. Moreover, the TGI in the experiment on SF-295 CNS was greater than 66.2 µM; in the experiment on SR leukemia, greater than 100 µM; with UACC-257 melanoma, 0.679 µM.
Regarding `NS(=O)(=O)c1ccc(N2N=C3c4ccccc4CC3C2c2cccs2)cc1` (stereo not given), the GI50 with ACHN renal was 19.8 µM; with HCT-116 colon it was 10.7 µM; in the experiment on HS 578T breast it was 28.7 µM; in the experiment with KM12 colon, 15.7 µM; in the experiment on MCF7 breast it was greater than 100 µM; with RXF 393 renal, 20.6 µM. Besides, the GI50 is 16.2 µM in the experiment with SF-295 CNS, 13.2 µM with TK-10 renal and 29.7 µM with UACC-257 melanoma. For the same compound, the TGI in the experiment with ACHN renal is 36.3 µM; in the experiment on HCT-116 colon, 25 µM; with HS 578T breast it was 76.9 µM; with KM12 colon it was 57.2 µM; in the experiment with MCF7 breast, greater than 100 µM; in the experiment with RXF 393 renal it was 62.6 µM. Besides, the TGI in the experiment with SF-295 CNS was found to be 34.4 µM; with TK-10 renal, 34.1 µM; in the experiment with UACC-257 melanoma, 73.7 µM.
In the case of `O=C(Nc1ccc(F)cc1F)c1cc(Cl)ccc1O`, the GI50 is 2.09 µM in the experiment on ACHN renal; 1.23 µM with HCT-116 colon; 0.978 µM in the experiment with HS 578T breast; 2.31 µM in the experiment on KM12 colon; 2.05 µM in the experiment with MCF7 breast; 1.37 µM in the experiment on RXF 393 renal. The GI50 in the experiment with SF-295 CNS is 1.56 µM; with TK-10 renal, 5.53 µM; with UACC-257 melanoma, 0.397 µM. Moreover, the TGI in the experiment with ACHN renal was 7.68 µM; in the experiment with HCT-116 colon, 3.31 µM; with HS 578T breast it was 7.25 µM; in the experiment on KM12 colon, 7.68 µM; in the experiment on MCF7 breast, greater than 100 µM; in the experiment with RXF 393 renal it was 5.1 µM. The TGI stood at 3.16 µM in the experiment on SF-295 CNS, 31.8 µM in the experiment with TK-10 renal and 2.68 µM in the experiment on UACC-257 melanoma.
For the compound `C1=C/COCc2cc(ccc2OCCN2CCCC2)Nc2nccc(n2)-c2ccc(o2)COC/1`, the GI50 is 0.699 µM in the experiment with ACHN renal; 0.757 µM in the experiment with HCT-116 colon; 1.89 µM with HS 578T breast; 0.451 µM with KM12 colon; 0.734 µM in the experiment on MCF7 breast; 0.397 µM in the experiment on RXF 393 renal. Besides, the GI50 in the experiment on SF-295 CNS is 2.74 µM; in the experiment with TK-10 renal, 2.42 µM; in the experiment with UACC-257 melanoma, 1.52 µM. Moreover, the TGI with ACHN renal stood at 11.8 µM; in the experiment on HCT-116 colon, 10.6 µM; in the experiment on HS 578T breast, 6.77 µM; in the experiment on KM12 colon, 9.37 µM; with MCF7 breast, 3.84 µM; with RXF 393 renal, 1.64 µM. For the same compound, the TGI in the experiment with SF-295 CNS came to 8.02 µM; in the experiment with TK-10 renal, 12 µM; in the experiment on UACC-257 melanoma it was 3.43 µM.
As for `CCc1ccccc1NC(=O)/C=C/c1ccccc1`, the TGI with ACHN renal, in the experiment with HCT-116 colon, in the experiment on HS 578T breast, in the experiment on KM12 colon, with MCF7 breast and in the experiment on SF-295 CNS was greater than 100 µM in each case. Besides, the TGI in the experiment with SR leukemia, in the experiment on TK-10 renal and with UACC-257 melanoma was greater than 100 µM each time.
